# In patent US10577317B2, “Crystal forms and production methods thereof” (Sunovion Pharmaceuticals Inc., priority 2017, dated 2020):
# Where two headings read alike, the source gives them in different places.
# Assays:
# Type in all cases: physicochemical
# [1] = DVS water sorption isotherm, 25° C. scanned over 0 to 95% relative humidity (hygroscopicity)
# Description: In various embodiments, the hygroscopicity of crystal forms of racemic amisulpride, enantiomeric amisulpride, and enantiomeric amisulpride solvates are characterized by dynamic vapor sorption (DVS). DVS is a gravimetric technique that measures how much of a solvent is absorbed by a sample by varying the vapor concentration surrounding the sample (e.g., relative humidity) and measuring the change in mass. In the present application, DVS is used to generate water sorption isotherms, which represent the equilibrium amount of vapor sorbed as a function of steady state relative vapor pressure at a constant temperature.
# [2] = Solid form stability on storage at 25° C. and 60% relative humidity; details: after 4 months at 25° C. and 60% relative humidity (RH)
# [3] = Solubility (mg/mL) in water, buffers, simulated fluids and organic solvents (Table 1)
# [4] = DVS, 25° C., 0 to 95% relative humidity
compound,measurement,setting,value
"CCN1CCC[C@@H]1CNC(=O)c1cc(S(=O)(=O)CC)c(N)cc1OC [(R)-amisulpride Form A, R-4-Amino-N-[(1-ethyl-2-pyrrolidinyl)methyl]-5-(ethylsulfonyl)-2-methoxybenzamide]",hygroscopicity,[1]; [4],"substantially non-hygroscopic (less than a 1% maximum mass change in water sorption isotherms, at 25 °C scanned over 0 to 95% relative humidity)"
same,maximum mass change in water sorption isotherms,[1]; [4],0.183%
same,average maximum mass change,"[1]; DVS, average over the samples of Tables 6A-6C (Form A′) or 6D-6E (Form A)",about 0.17%
same,Change Mass,"[1]; FIG. 2D, RH 1.28 %, elapse time 173.0 min",0.000 wt %
same,Change Mass,"[1]; FIG. 2D, RH 5.03 %, elapse time 515.4 min",0.004 wt %
same,Change Mass,"[1]; FIG. 2D, RH 5.05 %, elapse time 854.6 min",0.008 wt %
same,Change Mass,"[1]; FIG. 2D, RH 5.19 %, elapse time 181.6 min",0.004 wt %
same,Change Mass,"[1]; FIG. 2D, RH 9.87 %, elapse time 523.4 min",0.008 wt %
same,Change Mass,"[1]; FIG. 2D, RH 10.07 %, elapse time 189.1 min",0.010 wt %
same,Change Mass,"[1]; FIG. 2D, RH 10.08 %, elapse time 507.4 min",0.010 wt %
same,Change Mass,"[1]; FIG. 2D, RH 10.10 %, elapse time 846.6 min",0.014 wt %
same,Change Mass,"[1]; FIG. 2D, RH 14.89 %, elapse time 531.4 min",0.014 wt %
same,Change Mass,"[1]; FIG. 2D, RH 14.91 %, elapse time 196.6 min",0.017 wt %
same,Change Mass,"[1]; FIG. 2D, RH 15.10 %, elapse time 499.4 min",0.017 wt %
same,Change Mass,"[1]; FIG. 2D, RH 15.15 %, elapse time 838.6 min",0.021 wt %
same,Change Mass,"[1]; FIG. 2D, RH 19.83 %, elapse time 204.6 min",0.024 wt %
same,Change Mass,"[1]; FIG. 2D, RH 19.90 %, elapse time 539.4 min",0.020 wt %
same,Change Mass,"[1]; FIG. 2D, RH 20.10 %, elapse time 491.4 min",0.023 wt %
same,Change Mass,"[1]; FIG. 2D, RH 20.13 %, elapse time 830.5 min",0.028 wt %
same,Change Mass,"[1]; FIG. 2D, RH 24.87 %, elapse time 548.4 min",0.027 wt %
same,Change Mass,"[1]; FIG. 2D, RH 24.89 %, elapse time 483.4 min",0.029 wt %
same,Change Mass,"[1]; FIG. 2D, RH 24.93 %, elapse time 822.5 min",0.033 wt %
same,Change Mass,"[1]; FIG. 2D, RH 24.98 %, elapse time 213.7 min",0.031 wt %
same,Change Mass,"[1]; FIG. 2D, RH 29.88 %, elapse time 222.7 min",0.039 wt %
same,Change Mass,"[1]; FIG. 2D, RH 29.89 %, elapse time 557.4 min",0.034 wt %
same,Change Mass,"[1]; FIG. 2D, RH 30.13 %, elapse time 475.9 min",0.036 wt %
same,Change Mass,"[1]; FIG. 2D, RH 30.15 %, elapse time 815.0 min",0.040 wt %
same,Change Mass,"[1]; FIG. 2D, RH 34.83 %, elapse time 566.4 min",0.042 wt %
same,Change Mass,"[1]; FIG. 2D, RH 34.93 %, elapse time 467.4 min",0.043 wt %
same,Change Mass,"[1]; FIG. 2D, RH 34.94 %, elapse time 806.5 min",0.046 wt %
same,Change Mass,"[1]; FIG. 2D, RH 34.97 %, elapse time 231.7 min",0.046 wt %
same,Change Mass,"[1]; FIG. 2D, RH 39.80 %, elapse time 240.7 min",0.054 wt %
same,Change Mass,"[1]; FIG. 2D, RH 39.88 %, elapse time 457.4 min",0.050 wt %
same,Change Mass,"[1]; FIG. 2D, RH 39.95 %, elapse time 796.5 min",0.053 wt %
same,Change Mass,"[1]; FIG. 2D, RH 39.99 %, elapse time 577.4 min",0.049 wt %
same,Change Mass,"[1]; FIG. 2D, RH 44.82 %, elapse time 249.7 min",0.061 wt %
same,Change Mass,"[1]; FIG. 2D, RH 44.93 %, elapse time 586.4 min",0.056 wt %
same,Change Mass,"[1]; FIG. 2D, RH 45.05 %, elapse time 786.5 min",0.060 wt %
same,Change Mass,"[1]; FIG. 2D, RH 45.17 %, elapse time 447.9 min",0.058 wt %
same,Change Mass,"[1]; FIG. 2D, RH 49.96 %, elapse time 597.5 min",0.063 wt %
same,Change Mass,"[1]; FIG. 2D, RH 49.98 %, elapse time 258.7 min",0.068 wt %
same,Change Mass,"[1]; FIG. 2D, RH 50.04 %, elapse time 775.5 min",0.067 wt %
same,Change Mass,"[1]; FIG. 2D, RH 50.07 %, elapse time 438.8 min",0.065 wt %
same,Change Mass,"[1]; FIG. 2D, RH 54.98 %, elapse time 606.5 min",0.070 wt %
same,Change Mass,"[1]; FIG. 2D, RH 55.01 %, elapse time 269.7 min",0.076 wt %
same,Change Mass,"[1]; FIG. 2D, RH 55.07 %, elapse time 427.8 min",0.073 wt %
same,Change Mass,"[1]; FIG. 2D, RH 55.14 %, elapse time 764.5 min",0.074 wt %
same,Change Mass,"[1]; FIG. 2D, RH 59.95 %, elapse time 278.7 min",0.084 wt %
same,Change Mass,"[1]; FIG. 2D, RH 59.95 %, elapse time 617.5 min",0.078 wt %
same,Change Mass,"[1]; FIG. 2D, RH 60.08 %, elapse time 416.8 min",0.081 wt %
same,Change Mass,"[1]; FIG. 2D, RH 60.16 %, elapse time 753.5 min",0.082 wt %
same,Change Mass,"[1]; FIG. 2D, RH 64.91 %, elapse time 628.5 min",0.086 wt %
same,Change Mass,"[1]; FIG. 2D, RH 64.92 %, elapse time 289.7 min",0.091 wt %
same,Change Mass,"[1]; FIG. 2D, RH 65.11 %, elapse time 742.5 min",0.090 wt %
same,Change Mass,"[1]; FIG. 2D, RH 65.16 %, elapse time 405.8 min",0.090 wt %
same,Change Mass,"[1]; FIG. 2D, RH 69.88 %, elapse time 300.7 min",0.099 wt %
same,Change Mass,"[1]; FIG. 2D, RH 69.98 %, elapse time 639.5 min",0.094 wt %
same,Change Mass,"[1]; FIG. 2D, RH 70.09 %, elapse time 394.8 min",0.099 wt %
same,Change Mass,"[1]; FIG. 2D, RH 70.18 %, elapse time 731.5 min",0.098 wt %
same,Change Mass,"[1]; FIG. 2D, RH 74.63 %, elapse time 648.5 min",0.103 wt %
same,Change Mass,"[1]; FIG. 2D, RH 74.64 %, elapse time 309.7 min",0.108 wt %
same,Change Mass,"[1]; FIG. 2D, RH 75.39 %, elapse time 383.8 min",0.109 wt %
same,Change Mass,"[1]; FIG. 2D, RH 75.48 %, elapse time 720.5 min",0.109 wt %
same,Change Mass,"[1]; FIG. 2D, RH 79.56 %, elapse time 318.7 min",0.119 wt %
same,Change Mass,"[1]; FIG. 2D, RH 79.66 %, elapse time 657.5 min",0.113 wt %
same,Change Mass,"[1]; FIG. 2D, RH 80.45 %, elapse time 374.8 min",0.124 wt %
same,Change Mass,"[1]; FIG. 2D, RH 80.45 %, elapse time 711.5 min",0.123 wt %
same,Change Mass,"[1]; FIG. 2D, RH 84.45 %, elapse time 666.5 min",0.128 wt %
same,Change Mass,"[1]; FIG. 2D, RH 84.52 %, elapse time 327.8 min",0.134 wt %
same,Change Mass,"[1]; FIG. 2D, RH 85.43 %, elapse time 702.5 min",0.152 wt %
same,Change Mass,"[1]; FIG. 2D, RH 85.47 %, elapse time 365.8 min",0.155 wt %
same,Change Mass,"[1]; FIG. 2D, RH 89.51 %, elapse time 336.8 min",0.152 wt %
same,Change Mass,"[1]; FIG. 2D, RH 89.63 %, elapse time 675.5 min",0.147 wt %
same,Change Mass,"[1]; FIG. 2D, RH 90.09 %, elapse time 356.8 min",0.168 wt %
same,Change Mass,"[1]; FIG. 2D, RH 90.20 %, elapse time 693.5 min",0.164 wt %
same,Change Mass,"[1]; FIG. 2D, RH 94.80 %, elapse time 347.8 min",0.183 wt %
same,Change Mass,"[1]; FIG. 2D, RH 94.89 %, elapse time 684.5 min",0.175 wt %
same,Change Mass,"[1]; FIG. 2E, RH 19.69 %, elapse time 383.8 min",0.012 wt %
same,Change Mass,"[1]; FIG. 2E, RH 24.95 %, elapse time 392.9 min",0.018 wt %
same,Change Mass,"[1]; FIG. 2E, RH 29.81 %, elapse time 401.9 min",0.024 wt %
same,Change Mass,"[1]; FIG. 2E, RH 34.97 %, elapse time 412.9 min",0.032 wt %
same,Change Mass,"[1]; FIG. 2E, RH 39.81 %, elapse time 421.9 min",0.038 wt %
same,Change Mass,"[1]; FIG. 2E, RH 44.97 %, elapse time 432.9 min",0.044 wt %
same,Change Mass,"[1]; FIG. 2E, RH 45.03 %, elapse time 627.0 min",0.046 wt %
same,Change Mass,"[1]; FIG. 2E, RH 49.81 %, elapse time 441.9 min",0.051 wt %
same,Change Mass,"[1]; FIG. 2E, RH 50.10 %, elapse time 618.0 min",0.052 wt %
same,Change Mass,"[1]; FIG. 2E, RH 54.81 %, elapse time 450.9 min",0.059 wt %
same,Change Mass,"[1]; FIG. 2E, RH 55.04 %, elapse time 609.0 min",0.059 wt %
same,Change Mass,"[1]; FIG. 2E, RH 59.91 %, elapse time 461.9 min",0.066 wt %
same,Change Mass,"[1]; FIG. 2E, RH 60.10 %, elapse time 598.0 min",0.067 wt %
same,Change Mass,"[1]; FIG. 2E, RH 64.88 %, elapse time 472.9 min",0.074 wt %
same,Change Mass,"[1]; FIG. 2E, RH 65.19 %, elapse time 586.9 min",0.075 wt %
same,Change Mass,"[1]; FIG. 2E, RH 69.81 %, elapse time 483.9 min",0.082 wt %
same,Change Mass,"[1]; FIG. 2E, RH 70.16 %, elapse time 575.9 min",0.083 wt %
same,Change Mass,"[1]; FIG. 2E, RH 74.59 %, elapse time 492.9 min",0.090 wt %
same,Change Mass,"[1]; FIG. 2E, RH 75.44 %, elapse time 564.9 min",0.092 wt %
same,Change Mass,"[1]; FIG. 2E, RH 79.63 %, elapse time 501.9 min",0.100 wt %
same,Change Mass,"[1]; FIG. 2E, RH 80.52 %, elapse time 555.9 min",0.105 wt %
same,Change Mass,"[1]; FIG. 2E, RH 84.55 %, elapse time 510.9 min",0.112 wt %
same,Change Mass,"[1]; FIG. 2E, RH 85.39 %, elapse time 546.9 min",0.126 wt %
same,Change Mass,"[1]; FIG. 2E, RH 89.85 %, elapse time 519.9 min",0.127 wt %
same,Change Mass,"[1]; FIG. 2E, RH 90.10 %, elapse time 537.9 min",0.137 wt %
same,Change Mass,"[1]; FIG. 2E, RH 94.52 %, elapse time 528.9 min",0.149 wt %
same,thermodynamic stability of crystal form (conversion to other polymorphs or amorphous form),[2],not substantially converting to other polymorphs or amorphous form
same,solubility,"[3]; aqueous buffer, 0.05M Acetate Buffer, solution pH 4.5, read-out: Solubility (mg/mL): 0.05M Acetate Buffer",> 100 mg/mL
same,solubility,"[3]; pH 1.1, Simulated Gastric Fluid (no enzyme), pH adjusted to 1.1 (Form A), 1.2 (Form A′), read-out: Solubility (mg/mL): Simulated Gastric Fluid (no enzyme)",> 100 mg/mL
same,solubility,"[3]; pH 6.7, fassgf or other biorelevant, Simulated Intestinal Fluid (no enzyme), pH adjusted to 6.7 (Form A), 6.9 (Form A′), read-out: Solubility (mg/mL): Simulated Intestinal Fluid (no enzyme)",> 100 mg/mL
